Results taken from ChEMBL document CHEMBL1201862, “PubChem BioAssay data set” (2004).
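Growth conditions: 96-well plates. Treatment: test compound, 48 hours, 5 concentrations. Analysis: linear interpolation between bracketing concentrations; unreached endpoints set to highest concentration. GI50 marks 50% less growth.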 Active and inactive are the calls of the source. Cut-off read from the data, not from the text of the source: active = GI50 up to about 1.1 µM and inactive = higher.

Experiments:
Experiment in all cases: NCI tumour cell line growth inhibition, 48 h
DLD-1 = tested on: DLD-1
XF498 = tested on: XF498
DMS-273 = tested on: DMS-273
LXFL 529 = tested on: LXFL 529
KM-20L2 = tested on: KM-20L2
SNB-78 = tested on: SNB-78
M19-MEL = tested on: M19-MEL
DMS-114 = tested on: DMS-114
RXF 631 = tested on: RXF 631

Measured: GI50

CN(C)CCNC(=O)c1ccccc1Nc1c(Cl)cccc1Cl
inactive: DLD-1 18.2 µM | XF498 9.66 µM | DMS-273 16.9 µM | LXFL 529 17.7 µM | KM-20L2 10.9 µM | SNB-78 16.4 µM | M19-MEL 11.1 µM

COc1ccc(C(C#N)NNC(=O)Cc2ccccc2)cc1OC (stereo not drawn)
inactive: DLD-1 > 100 µM | DMS-273 > 100 µM | LXFL 529 > 100 µM | SNB-78 > 100 µM | M19-MEL > 100 µM | DMS-114 > 100 µM

C=CCN(N=O)C(=O)N(CCCC(NC(C)=O)C(=O)NCc1ccccc1)Cc1ccccc1 (stereo not drawn)
inactive: XF498 36.3 µM | DMS-273 95.7 µM | LXFL 529 46.1 µM | KM-20L2 42.2 µM | RXF 631 47.2 µM | M19-MEL 44.4 µM | DMS-114 36.9 µM

COc1ccccc1NC(=O)CC(=O)NNCC(=O)Nc1nnc(-c2ccccc2)o1
inactive: DLD-1 > 100 µM | XF498 > 100 µM | DMS-273 > 100 µM | LXFL 529 > 100 µM | KM-20L2 > 100 µM | RXF 631 > 100 µM | SNB-78 > 100 µM | M19-MEL > 100 µM | DMS-114 > 100 µM

C=CCN(N=O)C(=O)N(CCC)CCCC(NC(C)=O)C(=O)NCc1ccccc1 (stereo not drawn)
inactive: XF498 > 100 µM | DMS-273 > 100 µM | LXFL 529 > 100 µM | KM-20L2 > 100 µM | RXF 631 > 100 µM | M19-MEL > 100 µM | DMS-114 > 100 µM

Cc1ccccc1NC(=O)Cc1nc2ccccc2s1
inactive: DLD-1 7.08 µM | XF498 14.5 µM | DMS-273 17.6 µM | LXFL 529 16.4 µM | KM-20L2 18.4 µM | RXF 631 16 µM | SNB-78 18.6 µM

c1ccc2c(c1)Sc1ccccc1N2C1CN2CCC1CC2 (stereo not drawn)
inactive: DLD-1 15.8 µM | XF498 13.9 µM | DMS-273 16.4 µM | LXFL 529 16.9 µM | KM-20L2 15.2 µM | SNB-78 14.4 µM | M19-MEL 16 µM | DMS-114 17.9 µM

Cc1cc(Cl)ccc1NC(=O)CCCC(=O)C1CCC/C1=N\NC(=O)CC#N (stereo not drawn)
inactive: DLD-1 > 100 µM | XF498 > 100 µM | DMS-273 > 100 µM | LXFL 529 > 100 µM | KM-20L2 > 100 µM | RXF 631 > 100 µM | SNB-78 > 100 µM | M19-MEL > 100 µM | DMS-114 > 100 µM

O=C(O)CNCc1c2ccccc2nc2ccccc12
inactive: DLD-1 33.3 µM | XF498 28.8 µM | DMS-273 40.2 µM | LXFL 529 26.5 µM | KM-20L2 29.3 µM | SNB-78 54 µM | M19-MEL 54.7 µM | DMS-114 20.7 µM

Nc1ccc(C(=O)N/C(=C\c2cccc([N+](=O)[O-])c2)c2nc3cc(Cl)ccc3[nH]2)cc1
inactive: DLD-1 > 100 µM | XF498 43.1 µM | LXFL 529 31 µM | KM-20L2 17 µM | RXF 631 63 µM | SNB-78 > 100 µM | M19-MEL > 100 µM | DMS-114 > 100 µM

C[C@]12CCC[C@H](OC=O)C1(O)C[C@H](C(=O)O)CC2 (stereo partly drawn)
inactive: DLD-1 > 100 µM | XF498 > 100 µM | DMS-273 > 100 µM | LXFL 529 > 100 µM | KM-20L2 19 µM | RXF 631 > 100 µM | SNB-78 > 100 µM | M19-MEL > 100 µM | DMS-114 > 100 µM

CCOC(=O)C(=O)Nc1c(C)cccc1C(C)C
inactive: DLD-1 > 100 µM | XF498 > 100 µM | DMS-273 > 100 µM | LXFL 529 > 100 µM | KM-20L2 > 100 µM | RXF 631 > 100 µM | SNB-78 > 100 µM | M19-MEL > 100 µM | DMS-114 > 100 µM

CSc1nc(-c2ccccc2)nc(N2CCOCC2)[s+]1
inactive: DLD-1 91.8 µM | DMS-273 > 100 µM | LXFL 529 37.3 µM | KM-20L2 > 100 µM | SNB-78 > 100 µM | M19-MEL > 100 µM

O=C(/C=C1/NC(=O)CS1)Nc1ccccc1
inactive: DLD-1 > 100 µM | XF498 > 100 µM | DMS-273 > 100 µM | LXFL 529 > 100 µM | KM-20L2 > 100 µM | RXF 631 > 100 µM | SNB-78 > 100 µM | M19-MEL > 100 µM | DMS-114 > 100 µM

CCOc1ccc(/N=C/c2cccc3cccnc23)cc1
inactive: DLD-1 51.4 µM | XF498 > 100 µM | DMS-273 81.3 µM | LXFL 529 13.2 µM | KM-20L2 > 100 µM | RXF 631 > 100 µM | SNB-78 > 100 µM | M19-MEL > 100 µM | DMS-114 88.7 µM

CCN(CC)c1ccc(/N=C2/C=CC(=C(C#N)C#N)c3ccccc32)c(C)c1
inactive: DLD-1 2.44 µM | XF498 1.44 µM | DMS-273 1.85 µM | KM-20L2 1.95 µM | SNB-78 1.63 µM | M19-MEL 1.94 µM

CC(C)N1C(C)[C@@H](c2ccccc2)O[P@]1(=O)CC1=CCCCC1 (stereo partly drawn)
inactive: DLD-1 > 100 µM | XF498 > 100 µM | LXFL 529 92.5 µM | KM-20L2 94.8 µM | M19-MEL > 100 µM | DMS-114 49.5 µM

Cc1ccc(S(=O)(=O)SCc2ccccc2)cc1
inactive: DLD-1 5.31 µM | XF498 35.5 µM | DMS-273 28.1 µM | LXFL 529 14.3 µM | KM-20L2 22.9 µM | SNB-78 18.5 µM | M19-MEL 33.7 µM | DMS-114 22.2 µM

CC(=O)NC(ON1C(=O)COc2ccccc21)C(Cl)(Cl)Cl (stereo not drawn)
inactive: DLD-1 > 100 µM | XF498 > 100 µM | DMS-273 > 100 µM | LXFL 529 > 100 µM | KM-20L2 > 100 µM | SNB-78 > 100 µM

COC(=O)/C(=N\NC(N)=O)C(C(=O)C=C(C)C)C(=O)C(=O)Nc1ccc(Cl)c(Cl)c1 (stereo not drawn)
inactive: DLD-1 > 100 µM | XF498 > 100 µM | DMS-273 > 100 µM | LXFL 529 > 100 µM | KM-20L2 > 100 µM | RXF 631 > 100 µM | SNB-78 > 100 µM | M19-MEL > 100 µM | DMS-114 > 100 µM
